Measured values as given in patent US20240207292A1, “BORONIC ACID COMPOUNDS, COMPOSITIONS AND METHODS” (Trustees of Tufts College, priority 2021, published 2024).
Like-named read-outs stand apart in the source and are kept apart here.

Columns and labels:
[1] = biological target: recombinant human fibroblast activation protein (FAP) (Homo sapiens (Human), UniProt Q12884); experiment: In vitro assay fibroblast activation protein IC50 (Example 21); assay type: biochemical
Protocol: (§1) The purpose of this assay is to determine the IC50 of various inhibitors against recombinant human dipeptidyl peptidase IV (DPPIV), fibroblast activation protein (FAP) or prolyl oligopeptidase (PREP).
(§2) The assays are conducted in the following steps: • 1 Dissolve the compound in DMSO to a final concentration of 100 mM. From this, prepare a 1 mM stock at pH 7.5 in 50 mM Tris, 140 mM NaCl Buffer (FAP)/pH 7.5 in 25 mM Tris, 250 mM NaCl Buffer/[…]. • 2. Serial dilute (1:10) the 1 mM compound stocks prepared previously into the appropriate assay buffer (FAP: 50 mM Tris, 140 mM NaCl, pH 7.5/PREP: 25 mM Tris, 0.25 M NaCl, pH 7.5/DPPIV: 25 mM Tris, pH 8.0) to one row of a 96-well plate. • 3. […] Dilute the enzymes into their appropriate assay buffers. The final enzyme concentrations should be 0.1, 1.2, and 0.6 nM for DPPIV, FAP and PREP respectively. Add 180 μL to each well needed in columns 2-10. Column 1(A,B,C) should be prepared with 200 μl of appropriate assay buffer as control. Column 1(D,E,F,G,H) should be prepared with 20 μl of appropriate assay buffer and 180 ul enzyme as no inhibitor control. • 5. Add 20 μL of the compound of interest from the dilution plate prepared in step 2 to columns 2-10 of the assay plate where appropriate. Each sample should be tested in triplicate. Allow this to incubate for 10 minutes at room temperature, shaking the plate for the first two minutes. • 6. Add 10 μL of 20× substrate prepared in step 3 to each well and allow this to incubate for 15 minutes at room temperature, shaking the plate for the first two minutes. • 7. Read the fluorescence at λex: 380, λem: 460. (DPcore=[dAla|dSer|Gly]-[boroPro|Pro-nitrile], XXaa=alpha-amino acid)

recombinant human FAP = recombinant human FAP (Homo sapiens (Human), UniProt Q12884); experiment: In vitro enzyme IC50 assay, FAP (Example 16); assay type: biochemical; settings: 10 min preincubation at 25° C.; Z-Gly-Pro-AMC
recombinant human FAP, sequence (Q12884 whole entry): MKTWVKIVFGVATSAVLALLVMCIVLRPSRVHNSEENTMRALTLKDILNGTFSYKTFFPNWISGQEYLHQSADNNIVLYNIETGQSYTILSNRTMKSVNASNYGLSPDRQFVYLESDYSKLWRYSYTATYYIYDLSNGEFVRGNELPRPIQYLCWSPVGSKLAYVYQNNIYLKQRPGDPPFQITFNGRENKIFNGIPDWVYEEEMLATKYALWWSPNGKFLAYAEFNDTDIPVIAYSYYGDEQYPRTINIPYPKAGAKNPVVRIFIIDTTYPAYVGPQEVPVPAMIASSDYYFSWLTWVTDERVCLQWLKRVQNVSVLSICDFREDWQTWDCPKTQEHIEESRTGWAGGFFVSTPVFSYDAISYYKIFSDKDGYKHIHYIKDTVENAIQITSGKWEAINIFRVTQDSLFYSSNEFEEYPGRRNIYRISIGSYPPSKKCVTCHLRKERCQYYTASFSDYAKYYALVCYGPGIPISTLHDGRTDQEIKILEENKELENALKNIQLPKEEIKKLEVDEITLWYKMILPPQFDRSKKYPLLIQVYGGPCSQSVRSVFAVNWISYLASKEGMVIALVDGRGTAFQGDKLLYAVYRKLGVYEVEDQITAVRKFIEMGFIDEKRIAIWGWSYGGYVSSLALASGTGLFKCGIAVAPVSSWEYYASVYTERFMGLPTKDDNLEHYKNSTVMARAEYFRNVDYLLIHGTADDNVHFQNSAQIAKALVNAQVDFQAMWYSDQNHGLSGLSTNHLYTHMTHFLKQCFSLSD
Protocol: Biological Materials: For the in vitro IC50 determination assays, recombinant human DPPIV, DPP9, FAP, and PREP were purchased from R&D Systems, and DPP8 was from Biomol International. Buffer systems used were A (25 mM Tris, pH 8.0), B (50 mM Tris, pH 7.5), C (50 mM Tris, 140 mM NaCl, pH 7.5), D (25 mM Tris, 250 mM NaCl, pH 7.5), and E (20 mM Tris, 20 mM KCl, pH 7.4). […] Substrate Specificity Assay. Peptide libraries (0.21 mM) were incubated for 24 h with 1 nM FAP in buffer E at 37° C. The reaction was quenched by the addition of 1.2 N HCl. The samples were analyzed by reverse-phase HPLC-MS on a Thermo Finnigan LCQ Duo, quantifying the peaks in the resulting base peak chromatograms. Relative cleavage values were determined by comparing the postquench abundance of intact peptides to those in the initial library.
In Vitro Enzyme IC50 Assays. Enzymatic activity of DPPIV, DPP8, DPP9, FAP, and PREP was measured at 25° C. on a Molecular Devices M2e multidetection microtiter plate reader, monitoring the fluorescence at an excitation wavelength of 380 nm and an emission wavelength of 460 nm. The substrate was either H-Gly-Pro-AMC for the DPPIV, DPP8, and DPP9 assays or Z-Gly-Pro-AMC for the FAP and PREP assays. […] The final enzyme concentrations were 0.1, 0.8, 0.4, 1.2, and 0.6 nM for DPPIV, DPP8, DPP9, FAP, and PREP, respectively. […] Those prepared in pH 2.0 solution were preincubated at 25° C. for 4 h prior to dilution. Immediately prior to the commencement of the experiment, the 100 mM stocks were further diluted to 10^-3 M in the appropriate assay buffer, from which 1:10 serial dilutions were prepared. All inhibitors were tested in triplicate.

[2] = Radiochemical purity over time at room temperature (radio-HPLC); assay type: physicochemical
Protocol: The labeling efficiency was analyzed by instant thin layer chromatography (iTLC) and was typically >98%. For iTLC analysis, 1 μL of diluted labeling solution was applied to a strip of iTLC-SA chromatography paper (Agilent P/N A120B12, 114×2.5 mm) and developed in 0.1M citrate buffer (8 cm solvent migration) to assess free ^177Lu (Rf>0.5) and [^177Lu]-6555 (Rf˜0). The iTLC strips were analyzed using an Eckert & Ziegler AR-2000 Radio-TLC Imaging Scanner. The radiochemical purity was analyzed by high performance chromatography (HPLC) and was typically >90%. Briefly, the product was analyzed using a Phenomenex Luna 3.0 μm C18(2), 100 Å, 150 mm×4.6 mm column. Eluent A: 50 mM ammonium acetate in water, eluent B: acetonitrile. Gradient: 2% B from 0-5 min; 2% to 26% B from 5-20 min; 26% to 98% B from 20-25 min; 98% to 2% B from 25-26 min; 2% B from 26-30 min. Flow rate: 1.0 mL/min, Radio-HPLC detector: NaI (Eckert & Zeigler FC-1000), UV: 215 nm. The radiochemical purity remained >90% for three days at room temperature.
(§3) The above depicted radiopharmaceutical [^177Lu]-6952 can be prepared as described in Example 20 using the radiochemical precursor 6952 (Example 21 above). The labeling efficiency was analyzed by instant thin layer chromatography (iTLC) and was typically >98%. […] The iTLC strips were analyzed using an Eckert & Ziegler AR-2000 Radio-TLC Imaging Scanner. The radiochemical purity was analyzed by high performance chromatography (HPLC) and was typically >90%. Briefly, the product was analyzed using a Phenomenex Luna 3.0 μm C18(2), 100A, 150 mm×4.6 mm column. […]
as §3, with “The” for “The above depicted radiopharmaceutical [^177Lu]-6952 can be prepared as described in Example 20 using the radiochemical precursor 6952 (Example 21 above). The”, “>95%.” for “>98%.”, “>95%.” for “>90%.”
The labeling efficiency was analyzed by instant thin layer chromatography (iTLC) and was typically >95%. […]

[3] = biological target: recombinant human dipeptidyl peptidase IV (DPPIV) (Homo sapiens (Human), UniProt P27487); experiment: In vitro assay dipeptidyl peptidase IV IC50 (Example 21); assay type: biochemical
recombinant human dipeptidyl peptidase IV (DPPIV), sequence (P27487 whole entry): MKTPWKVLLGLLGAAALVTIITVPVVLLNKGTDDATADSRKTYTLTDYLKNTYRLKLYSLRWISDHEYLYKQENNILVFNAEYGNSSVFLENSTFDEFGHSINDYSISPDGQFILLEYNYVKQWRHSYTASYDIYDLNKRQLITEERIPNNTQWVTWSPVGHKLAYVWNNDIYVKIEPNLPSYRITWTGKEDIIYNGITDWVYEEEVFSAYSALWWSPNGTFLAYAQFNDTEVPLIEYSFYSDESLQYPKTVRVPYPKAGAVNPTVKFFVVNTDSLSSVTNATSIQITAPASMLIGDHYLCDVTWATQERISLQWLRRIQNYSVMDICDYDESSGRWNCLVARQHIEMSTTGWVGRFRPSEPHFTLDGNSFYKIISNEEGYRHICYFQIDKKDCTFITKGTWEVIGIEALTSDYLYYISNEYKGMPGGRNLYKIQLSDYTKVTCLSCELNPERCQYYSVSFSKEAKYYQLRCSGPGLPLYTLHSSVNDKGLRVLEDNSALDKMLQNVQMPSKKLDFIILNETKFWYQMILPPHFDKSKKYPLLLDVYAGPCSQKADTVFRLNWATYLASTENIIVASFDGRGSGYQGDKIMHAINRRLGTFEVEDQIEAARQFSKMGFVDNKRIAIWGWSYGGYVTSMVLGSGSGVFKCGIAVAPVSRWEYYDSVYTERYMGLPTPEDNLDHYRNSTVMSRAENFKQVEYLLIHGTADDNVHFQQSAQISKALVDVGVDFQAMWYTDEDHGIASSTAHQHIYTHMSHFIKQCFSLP
Protocol: as §1, §2

[4] = biological target: recombinant human prolyl oligopeptidase (PREP) (Homo sapiens (Human), UniProt P48147); experiment: In vitro assay prolyl oligopeptidase IC50 (Example 21); assay type: biochemical
recombinant human prolyl oligopeptidase (PREP), sequence (P48147 whole entry): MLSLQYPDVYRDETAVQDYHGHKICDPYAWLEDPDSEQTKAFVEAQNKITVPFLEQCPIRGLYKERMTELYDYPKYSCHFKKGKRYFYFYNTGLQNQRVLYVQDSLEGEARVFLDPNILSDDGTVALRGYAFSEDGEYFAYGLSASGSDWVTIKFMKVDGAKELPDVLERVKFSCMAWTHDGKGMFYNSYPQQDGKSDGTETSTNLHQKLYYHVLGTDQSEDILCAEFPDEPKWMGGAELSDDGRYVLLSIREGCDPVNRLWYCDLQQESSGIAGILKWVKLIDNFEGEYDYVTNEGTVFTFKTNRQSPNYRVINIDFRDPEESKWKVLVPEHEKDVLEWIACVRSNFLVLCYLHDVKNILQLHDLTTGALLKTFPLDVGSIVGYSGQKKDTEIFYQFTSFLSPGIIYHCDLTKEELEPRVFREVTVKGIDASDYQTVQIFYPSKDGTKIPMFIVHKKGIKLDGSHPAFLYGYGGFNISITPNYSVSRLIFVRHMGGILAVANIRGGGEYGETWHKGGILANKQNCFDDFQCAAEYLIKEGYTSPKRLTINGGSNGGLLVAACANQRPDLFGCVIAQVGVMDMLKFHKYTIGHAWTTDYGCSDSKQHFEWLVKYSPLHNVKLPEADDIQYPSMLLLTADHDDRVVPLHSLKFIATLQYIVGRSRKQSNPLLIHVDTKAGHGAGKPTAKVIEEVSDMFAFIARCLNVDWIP
Protocol: as §1, §2

[5] = Degradation in aqueous solution of pH about 3 during HPLC purification and lyophilization; settings: during HPLC purification and subsequent lyophilization
[6] = for three days at room temperature, formulation with N-acetyl methionine

recombinant human fibroblast activation protein (FAP), sequence (Q12884 whole entry): as the sequence (Q12884 whole entry) above

With `CC(C)[C@H](NC(=O)CNC(=O)CN1CCN(CC(=O)O)CCN(CC(=O)O)CCN(CC(=O)O)CC1)C(=O)N[C@H](C)C(=O)N1CCC[C@H]1B(O)O` [compound 6521, DOTA-Gly-Val-D-Ala-boroPro] the IC50 ([1]; Z-Gly-Pro-AMC, 1.2 nM enzyme) was 6.9 nM and the IC50 (recombinant human FAP) was 6.9 nM.

With `C[C@@H](NC(=O)c1ccc(NC(=O)CN2CCN(CC(=O)O)CCN(CC(=O)O)CCN(CC(=O)O)CC2)cc1)C(=O)N1CCC[C@H]1B(O)O` [compound 6572, DOTA-PABA-D-Ala-boroPro] the IC50 [1] was 1.6 nM and the IC50 (recombinant human FAP) was 1.6 nM.

Compound `C[C@@H](NC(=O)c1ccc(CNC(=O)CN2CCN3CCN4CCN(CC2)CC(=O)O[CH2][Ga]([CH2]COC(=O)C3)[CH2]COC(=O)C4)cc1)C(=O)N1CCC[C@H]1B(O)O` [[^68Ga]-6555] has a radiochemical purity remained ([2]; for 4 hours at room temperature) of over 95%.

With `C[C@@H](NC(=O)c1ccc(CNC(=O)CN2CCN(CC(=O)O)CCN(CC(=O)O)CCN(CC(=O)O)CC2)nc1)C(=O)N1CCC[C@H]1B(O)O` [compound 6556, DOTA-aminomethyl-Nic-D-Ala-boroPro] the IC50 [1] was 2.4 nM and the IC50 (recombinant human FAP) was 2.4 nM.

In the case of `N[C@@H](CCCCNC(=O)CN1CCN(CC(=O)O)CCN(CC(=O)O)CCN(CC(=O)O)CC1)C(=O)N1CCC[C@H]1B(O)O` [compound 6549, Lys(DOTA)-boroPro], the IC50 [1] is reported as 2.9 nM and the IC50 (recombinant human FAP) is reported as 3.2 nM.

Compound `C[C@@H](NC(=O)c1ccc(NNC(=O)CNC(=O)CN2CCN(CC(=O)O)CCN(CC(=O)O)CCN(CC(=O)O)CC2)cc1)C(=O)N1CCC[C@H]1B(O)O` [6487S, DOTA-Gly-HyBz-D-Ala-boroPro] has an IC50 (recombinant human FAP) of 2.1 nM.

For `C[C@@H](NC(=O)c1ccc(NNC(=O)CCNC(=O)CN2CCN(CC(=O)O)CCN(CC(=O)O)CCN(CC(=O)O)CC2)cc1)C(=O)N1CCC[C@H]1B(O)O` [6488S, DOTA-betaAla-HyBz-D-Ala-boroPro], the IC50 [1] was 8.8 nM and the IC50 (recombinant human FAP) was 8.8 nM.

`C[C@@H](NC(=O)[C@H]1CC[C@H](CNC(=O)CN2CCN3CCN4CCN(CC2)CC(=O)O[CH2][Lu]([CH2]COC(=O)C3)[CH2]COC(=O)C4)CC1)C(=O)N1CCC[C@H]1B(O)O` [[^177Lu]-6952] gave a radiochemical purity remained [2, 6] of over 90%.

For `C[C@@H](NC(=O)c1ccc(NNC(=O)CN2CCN3CCN(CC(=O)O)CCN(CC2)CC(=O)[O][Cu][O]C(=O)C3)cc1)C(=O)N1CCC[C@H]1B(O)O` [compound 6481, DOTA[Cu(II)]-HyBz-D-Ala-boroPro], the IC50 (recombinant human FAP) was 10.3 nM.

Compound “DOTA[(Cu(II)]-Ser-D-Ala-boroPro [6509CU]” has an IC50 ([1]; Z-Gly-Pro-AMC, 1.2 nM enzyme) of 128 nM and an IC50 (recombinant human FAP) of 128 nM.

Work on `C[C@@H](NC(=O)c1ccc(NNC(=O)CCCNC(=O)CN2CCN(CC(=O)O)CCN(CC(=O)O)CCN(CC(=O)O)CC2)cc1)C(=O)N1CCC[C@H]1B(O)O` [6489S, DOTA-GABA-HyBz-D-Ala-boroPro] yielded an IC50 (recombinant human FAP) of 0.8 nM.

For `C[C@@H](NC(=O)c1ccc(NC(=O)CN2CCN3CCN(CC(=O)O)CCN(CC2)CC(=O)[O][Cu][O]C(=O)C3)cc1)C(=O)N1CCC[C@H]1B(O)O` [6572CU, DOTA[Cu(II)]-PABA-D-Ala-boroPro], the IC50 (recombinant human FAP) was 12.6 nM.

Compound `C[C@@H](NC(=O)c1ccc(CNC(=O)CN2CCN3CCN4CCN(CC2)CC(=O)[O][Ga]([O]C(=O)C3)[O]C(=O)C4)cc1)C(=O)N1CCC[C@H]1B(O)O` [6555GA] has an IC50 [3] of over 100000 nM, an IC50 [1] of 55 nM and an IC50 [4] of 3600 nM. The “degradation in aqueous solution” value [5] was “did not observe any sign of degradation”.

With `C[C@@H](NC(=O)c1ccc(NNC(=O)CCNC(=O)CN2CCN3CCN(CC(=O)O)CCN(CC2)CC(=O)[O][Cu][O]C(=O)C3)cc1)C(=O)N1CCC[C@H]1B(O)O` [compound 6488, DOTA[Cu]-betaAla-HyBz-D-Ala-boroPro] the IC50 [1] was 34.3 nM and the IC50 (recombinant human FAP) was 34.3 nM.

Work on `C[C@@H](NC(=O)c1ccc(CNC(=O)CN2CCN3CCN4CCN(CC2)CC(=O)O[CH2][Lu]([CH2]COC(=O)C3)[CH2]COC(=O)C4)cc1)C(=O)N1CCC[C@H]1B(O)O` [[^177Lu]-6555] yielded a radiochemical purity remained [2, 6] of over 90%.
